Measurements taken from patent US20240335402A1, “BIODEGRADABLE ANTI-INFECTIVE FORMULATIONS” (New Mexico Tech University Research Park Corporation, priority 2023, published 2024).

Tested on: colistin (polymyxin E, or PME) resistant bacterium S. maltophilia
Assay: Spot test on lawn of colistin resistant bacterium
Format: cell-based
Settings: 10 μL spotted, 37° C., 2 days

SMILES: O=C([O-])CC(O)(CC(=O)[O-])C(=O)[O-].[Na+].[Na+].[Na+] [Trisodium citrate]
- activity / kill of S. maltophilia lawn: did not work as well as CTAC
